Laboratory results taken from patent US20160022751A1, “NOVEL COMPOSITION FOR TREATING ALZHEIMER'S DISEASE AND IMPROVING COGNITIVE FUNCTION OF ALZHEIMER'S PATIENTS” (GANGNEUNG-WONJU NATIONAL UNIVERSITY INDUSTRY ACADEMY …, priority 2014, published 2016).

Assays:
ChAT = ChAT mRNA expression in N2a cells (RT-PCR); type: cell-based, mouse; details: for expression of ChAT mRNA: single ginsenoside (FIG. 7A); for expression of ChAT, dose dependence: various concentrations (FIG. 7C)
Description: (§1) The present inventor reported that ChAT overexpressing human neural stem cells restored cognition with an increase of ACh levels in rat model (Park et al., Exp. Neurol., 234: 521-526, 2012). This implies that the increase of the ChAT level in cholinergic neurons plays a critical role in cognition enhancement and thus the cholinergic gene locus “VAChT/ChAT” can be a putative target for therapeutic approaches on AD. Thus the present inventor prepared transfected Neuro-2a (N2a) cells that over-express the human ChAT and APP (designated as “N2a.hChAT” and “N2a.hAPPswe”, respectively, FIG. 6) and the N2a.hChAT and N2a.hAPPswe cells were treated with the faction groups 1 to 5 isolated in the Example 3 at a centration of 50 μg/ml. Neuro-2a mouse neuroblastoma cells (Korean Cell Line Bank, Korea) were grown in DMEM supplemented with 10% fetal bovine serum (FBS), 100 U/m penicillin, and 100 μg/ml streptomycin (Invitrogen, USA) under 5% CO2 at 37° C. in tissue culture flasks. For all experiments, cells were grown to greater than 90% confluency and subjected to no more than 20 cell passages. The medium was changed every 2-3 days. Subconfluent cells were harvested and seeded at a density of 5×10^5 cells or 5×10^6 cells in poly-L-lysine-coated 35 mm or 60 mm culture plates. To recover the cells that are not completely saturated for analysis, poly-L-lysine coated 35 mm or 60 mm culture was seeded at a concentration of 5×10^5 or 5×10^6 cells on the plates. The extent of expression of hChAT and APP in the N2a.hChAT and N2a.hAAPswe cells treated with the faction groups 1 to 5 was quantified with RT-PCR using primers described in the below Table 2. At this time, beta-actin was used as an internal control.
(§2) Specifically, total RNA extracts from N2a cells were prepared using the Trizol method (Invitrogen, USA) and cDNA was synthesized from RNA by reverse transcription of 1 μg of total RNA using a reverse transcription system (Improm-II, Promega, USA) and oligo dT primers in a total volume of 20 μL. PCR amplification was performed using the primers described in Table 2 (Bioneer, Korea). Quantitative real-time PCR reactions were run on a Rotor-Gene 6000 (Corbett Research, Australia) using SensiMix™ SYBR Hi-ROX Kit (Bioline, U.K.) in 20 μL reaction mixtures. Each real-time-PCR master mix contained 10 μL 2× enzyme master mix, 7.0 μL RNase free water, 1 μL of each primer (10 pM each), and 1 μL diluted template. The PCR was performed with an initial pre-incubation step for 15 min at 95° C., followed by 45 cycles of 95° C. for 15 s, annealing at 52° C. for 15 s, and extension at 72° C. for 10 s. Melting curve analysis was used to confirm formation of the expected PCR product, and products from all assays were additionally tested with 1.2% agarose gel electrophoresis to confirm the correct lengths. An inter-run calibrator was used, and a standard curve was created for each gene to obtain PCR efficiencies. Relative sample expression levels were calculated using Rotor-Gene 6000 Series Software 1.7, and were expressed relative to β-actin and corrected for between-run variability. Data for the experimental samples were expressed as a fold unit the internal control gene.
(§3) In order to examine whether five ginsenosides affect the expression of ChAT related to the synthesis of acetylcholine and VAChT controlling extracellular secretion of acetylcholine, the present inventor analyzed the expression level of ChAT and VAChT after treating the five ginsenosides to N2a […] cells, respectively.

VAChT = VAChT mRNA expression in N2a cells (RT-PCR); type: cell-based, mouse; details: for expression of VAChT mRNA: single ginsenoside (FIG. 7B); for expression of VAChT, dose dependence: various concentrations (FIG. 7D)
Description: as §1, §2, §3

NGF = NGF mRNA expression in N2a cells (quantitative RT-PCR); type: cell-based, mouse; details: N2a cells (FIG. 13)
Description: Since NGF-Trk signal pathway upregulates ChAT and VAChT, it is important to know whether ginsenosides Rd and Re regulate Trk activity directly or at least indirectly. Therefore, the inventor investigated whether the expression of ChAT and VAChT was blocked by treating K252a, an inhibitor against protein kinase C (PKC) and Trk together with ginsenoside Rd or Re, in order to determine more closely whether the expression of cholinergic surface markers and the differentiation of neurons by the treatment of ginsenosides Rd and Re are caused whereby they act NGF-TrkA pathway directly. Particularly, N2a cells were treated with or without K252a (50 nM) in the presence of NGF (100 ng/mL), Re (5 μg/mL) or Rd (5 μg/mL) for 48 h. Total RNA and protein lysates were isolated as described in the Example 4-1 (FIG. 12). […] In addition, the present inventor performed quantitative RT-PCR in order to verify whether the treatment of ginsenosides Rd and Re affect the expression of NGF and NGFR in N2a cells.

[1] = HPLC analysis of ginsenosides transported into the brain after oral administration; type: in vivo, BALB/c mice; details: mice, oral mixture of Rb1, Re, Rd, Rg1, Rg3 10 mg/kg each, brain taken after six hours, HPLC (FIG. 22)
Experimental: Thus, the present inventor performed an HPLC analysis on brain tissue extract obtained from experimental animals administrated with mixture of five ginsenosides (Rb1, Rd, Re, Rg1 and Rg3) which are contained in RgC, in order to investigate whether RgC or ginsenosides Rd, Re and Rg3 can pass through the BBB. For the HPLC analysis of ginsenosides transported into the brain, a mixture of Rb1, Re, Rd, Rg1, and Rg3 (10 mg/kg each) was administered to ten-week-old male BALB/c mice (Central Lab. Animals, Korea). Brain tissues were isolated six hours after the oral administration of the ginsenosides after the complete perfusion with 0.9% saline solution, mechanically disrupted using a TissueLyser (Qiagen, Crawley, U.K.), and centrifuged for 10 min at 13500 rpm. The supernatant (1 mL) was then mixed with n-butanol (0.4 mL) and the butanol layer was completely evaporated and dried for HPLC analysis. The chromatography was performed by the Agilent 1100 series HPLC system (Agilent Technologies, USA) equipped with a vacuum degasser, quaternary pump, and ultraviolet (UV) detector. Chromatographic separation was performed on a Zorbax SB-Aq C18 column (4.6150 mm, 5 μm) and a mixture of solvent A (water) and solvent B (acetonitrile) flowed at a rate of 1 mL/min. The gradient elution program was initiated with 79% solvent A and 21% solvent B, 0-10 min (21-22% B), 10-11 min (22-23% B), 11-29 min (23-24% B), 29-34 min (24-30% B), 34-44 min (30-32% B), 44-49 min (32-50% B), 49-64 min (50-65% B), 64-78 min (65-100% B), and equilibrated with the initial gradient program (21% B) for 10 min prior to the next injection. The column temperature was set at 35° C., the volume of the sample injection was 10 μL, and detection wavelength was set at 203 nm. The animal experiments were approved by the Gangneung-Wonju National University Animal Care and Use Committee (Approval Number: GWNU-2013-23), and all procedures were conducted in accordance with the Guide for Care and Use of Laboratory Animals published by the National Institute of Health.

Compound | expression of ChAT mRNA (ChAT) | expression of ChAT, dose dependence (ChAT) | expression of VAChT mRNA (VAChT) | expression of VAChT, dose dependence (VAChT) | NGF mRNA level (NGF) | penetration into the brain (passage through BBB) [1]
CC(C)=CCC[C@](C)(O[C@@H]1O[C@H](CO)[C@@H](O)[C@H](O)[C@H]1O)[C@H]1CC[C@]2(C)[C@@H]1[C@H](O)C[C@@H]1[C@@]3(C)CC[C@H](O[C@@H]4O[C@H](CO)[C@@H](O)[C@H](O)[C@H]4O[C@@H]4O[C@H](CO)[C@@H](O)[C@H](O)[C@H]4O)C(C)(C)[C@@H]3CC[C@]12C [ginsenoside Rd] | significantly increased | increased expression of ChAT and VAChT in a dose-dependent manner | significantly increased | increased expression of ChAT and VAChT in a dose-dependent manner | significantly increased | penetrated into the brain
CC(C)=CCC[C@](C)(O)[C@H]1CC[C@]2(C)[C@@H]1[C@H](O)C[C@@H]1[C@@]3(C)CC[C@H](O[C@@H]4O[C@H](CO)[C@@H](O)[C@H](O)[C@H]4O[C@@H]4O[C@H](CO)[C@@H](O)[C@H](O)[C@H]4O)C(C)(C)[C@@H]3CC[C@]12C [ginsenoside Rg3] | no significant increase | – | no significant increase | – | – | penetrated into the brain
CC(C)=CCC[C@](C)(O[C@@H]1O[C@H](CO)[C@@H](O)[C@H](O)[C@H]1O)[C@H]1CC[C@]2(C)[C@@H]1[C@H](O)C[C@@H]1[C@@]3(C)CC[C@H](O)C(C)(C)[C@@H]3[C@@H](O[C@@H]3O[C@H](CO)[C@@H](O)[C@H](O)[C@H]3O[C@@H]3O[C@@H](C)[C@H](O)[C@@H](O)[C@H]3O)C[C@]12C [ginsenoside Re] | significantly increased | increased expression of ChAT and VAChT in a dose-dependent manner | significantly increased | increased expression of ChAT and VAChT in a dose-dependent manner | significantly increased | penetrated into the brain
